Experimental data as given in ChEMBL document CHEMBL3886297, “Cinnamoyl inhibitors of transglutaminase” (2015).
pIC50: −log10 of the molar value.

Target: T1, Protein-glutamine gamma-glutamyltransferase 2 (Cavia cutleri, UniProt P08587)
T1 sequence (P08587 whole entry): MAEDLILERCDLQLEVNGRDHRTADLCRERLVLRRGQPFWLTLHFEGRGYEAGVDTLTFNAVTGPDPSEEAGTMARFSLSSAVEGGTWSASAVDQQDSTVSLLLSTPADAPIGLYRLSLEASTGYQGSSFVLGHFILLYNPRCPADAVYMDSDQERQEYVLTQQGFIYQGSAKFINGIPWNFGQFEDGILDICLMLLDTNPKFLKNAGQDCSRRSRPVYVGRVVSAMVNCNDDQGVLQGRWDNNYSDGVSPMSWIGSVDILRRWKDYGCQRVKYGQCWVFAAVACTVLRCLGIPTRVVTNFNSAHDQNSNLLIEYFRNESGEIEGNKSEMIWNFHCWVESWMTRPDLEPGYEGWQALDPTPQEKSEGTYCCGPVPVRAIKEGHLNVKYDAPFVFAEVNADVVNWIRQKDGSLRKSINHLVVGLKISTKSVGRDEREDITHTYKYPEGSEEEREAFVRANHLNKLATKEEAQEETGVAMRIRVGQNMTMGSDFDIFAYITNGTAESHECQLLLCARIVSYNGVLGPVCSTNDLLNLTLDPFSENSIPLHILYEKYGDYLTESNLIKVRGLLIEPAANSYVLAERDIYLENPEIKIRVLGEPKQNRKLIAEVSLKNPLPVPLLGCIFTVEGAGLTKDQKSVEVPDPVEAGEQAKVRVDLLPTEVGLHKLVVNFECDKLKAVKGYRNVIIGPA
Experiment: Enzyme Inhibition Assay: For enzymology studies of these compounds, recombinant guinea pig liver TGase was expressed in Escherichia coli and effectively purified (Gillet, S. M. F. G. et al J. N., Prot. Exp. & Purif. 2004, 33, 256). […] The mode of inhibition was determined for the representative lead compound.

`O=C(/C=C/c1ccc([N+](=O)[O-])cc1)NCc1ccccc1` gave a pIC50 of under 4.30.
For `O=C(/C=C/c1ccc([N+](=O)[O-])cc1)n1ccnc1`, the pIC50 was under 4.70.
